Where two headings read alike, the source gives them in different places.
Assays:
[1] = tested on: carrageenin induced edema in rats; test: carrageenin induced edema test (Winter et al.); format: in vivo; conditions: for significant reduction of the edema over the control: oral, about 1/5 to about 1/10 of the LD50
Description: As stated above, the compounds of the invention show also a remarkable antiinflammatory action, which was ascertained by means of the "carrageenin induced edema test" in rats. Said test was performed according to the operative scheme proposed by C. A. Winter et al., Proc., Soc. Exptl.

[2] = tested on: rats; test: pole climbing avoidance test (antianxiety activity; Maffii); format: in vivo; conditions: for responders at 30 mg/kg / responders at 60 mg/kg / responders at 15 mg/kg / responders at 10 mg/kg: Rattus norvegicus, ip; for responders at 30 mg/kg: 30 mg/Kg i.p.; for responders at 60 mg/kg: 60 mg/Kg i.p.; for influence on the CR and the UR: i.p., about 15 to about 60 mg/Kg; for responders at 15 mg/kg: 15 mg/Kg i.p.; for responders at 10 mg/kg: 10 mg/Kg i.p.
Source text: The CNS-depressant activity in mammals was investigated by means of the general psychophysic screening method, as described by S. Irwin in Psychopharmacologia (Berl.), 13, 222-257, 1968. […] It is to be noted that the above parameters are directly connected with sedative, hypnotic and miorelaxing properties. The antianxiety activity of the compounds of the invention was investigated by means of the "pole climbing avoidance test", performed as described by G. Maffii in Journ. Pharm. Pharmacol., 11, 129, 1959, wherein a conditioned animal (generally a rat) is deconditioned i.e., is brought to its normal psychic behavior by administration of a suitable amount of the compound to be tested. According to G. Maffii, an inhibition of the secondary conditioned response (CR2) without a contemporary or coupled with a not significant inhibition of the primary conditioned response (CR) and the unconditioned response (UR) is a clear indication of an antianxiety effect since these last two parameters are connected with sedative and hypnotic properties.

[3] = Acute toxicity (LD50) in mice, oral; conditions: mouse, in vivo, p.o.
Description: (§1) Moreover, they display a considerably low toxicity as, generally, their LD50 values are never lower than 600 mg/Kg when given i.p. and never lower than 1000 mg/Kg when given orally to mice.

[4] = Acute toxicity (LD50) in mice, i.p.; conditions: mouse, in vivo, ip
Description: as §1

[5] = read-out: CR2 (secondary conditioned response), Decond./Conditioned
[6] = read-out: CR (primary conditioned response), Decond./Conditioned
[7] = read-out: UR (unconditioned response), Decond./Conditioned

SMILES	% Decrease of the induced edema ([1]; 50 mg/kg p.o.) [%]	% Decrease of the induced edema ([1]; 100 mg/kg p.o.) [%]	% Decrease of the induced edema ([1]; 200 mg/kg p.o.) [%]	significant reduction of the edema over the control [1] [%]	responders at 30 mg/kg [2, 5] [%]	responders at 30 mg/kg [2, 6] [%]	responders at 30 mg/kg [2, 7] [%]	responders at 60 mg/kg [2, 5] [%]	responders at 60 mg/kg [2, 6] [%]	responders at 60 mg/kg [2, 7] [%]	influence on the CR and the UR [2]	LD50 [3] [mg/kg]	LD50 [4] [mg/kg]	% Decrease of the induced edema ([1]; 20 mg/kg p.o.) [%]	responders at 15 mg/kg [2, 5] [%]	responders at 15 mg/kg [2, 6] [%]	responders at 15 mg/kg [2, 7] [%]	responders at 10 mg/kg [2, 5] [%]	responders at 10 mg/kg [2, 6] [%]	responders at 10 mg/kg [2, 7] [%]
CCc1nn(C)c2nc(OCC(C)=O)c3ccccc3c12 [Example 26, 5-Acetylmethoxy-1-ethyl-3-methyl-3H-pyrazolo[3,4-c]isoquinoline]	30	37	43	≥ 40	50	0	0	100	0	0	practically no influence	> 1000	> 600	–	–	–	–	–	–	–
CCCCn1c(=O)c2ccccc2c2nc(C)sc21 [5(N-isomer), 4-Butyl-2-methyl-thiazolo[5,4-c]isoquinoline-5(4H)-one]	28	37	51	≥ 40	–	–	–	50	0	0	–	> 1000	600	–	–	–	–	–	–	–
CCCCOc1nc2c(c(C)nn2C)c2ccccc12 [Example 24, 5-Butoxy-1,3-dimethyl-3H-pyrazolo[3,4-c]isoquinoline]	26	38	45	≥ 40	60	0	0	100	30	0	practically no influence	1000	> 600	–	–	–	–	–	–	–
Cc1nn(C)c2c1c1ccccc1c(=O)n2CCN1CCN(c2ccccc2)CC1.Cl [Example 38, 1,3-Dimethyl-4-[2-(4-phenyl-1-piperazinyl)ethyl]-3H-pyrazolo[3,4-c]isoquinoline-5(4H)-one hydrochloride]	–	–	–	–	90	10	0	100	40	0	practically no influence	–	> 600	–	–	–	–	–	–	–
CCc1nc2c3ccccc3c(=O)n(C)c2s1 [Example 9, 2-Ethyl-4-methyl-thiazolo[5,4-c]isoquinoline-5(4H)-one]	25	31	40	≥ 40	–	–	–	–	–	–	–	1000	–	–	–	–	–	–	–	–
Cc1nc2c3ccccc3c(=O)n(C)c2s1 [Example 1, 2,4-Dimethyl-thiazolo[5,4-c]isoquinoline-5(4H)-one]	38	46	61	≥ 40	–	–	–	–	–	–	–	> 1000	–	25	–	–	–	–	–	–
CCCCOc1nc2sc(C)nc2c2ccccc12 [5(O-isomer), 5-butoxy-2-methyl-thiazolo[5,4-c]isoquinoline]	–	–	–	–	–	–	–	50	0	0	–	–	600	–	–	–	–	–	–	–
CCn1c(=O)c2ccccc2c2nc(C)sc21 [Example 2(N-isomer), 4-Ethyl-2-methyl-thiazolo[5,4-c]isoquinoline-5(4H)-one]	–	–	–	–	80	0	0	–	–	–	practically no influence	–	400	–	50	0	0	–	–	–
CCc1nn(C)c2nc(OCCO)c3ccccc3c12 [Example 25, 1-Ethyl-5-hydroxyethoxy-3-methyl-3H-pyrazolo[3,4-c]isoquinoline]	–	–	–	–	50	0	0	70	0	0	practically no influence	–	> 600	–	–	–	–	–	–	–
Cc1nn(C)c2nc(OCCO)c3ccccc3c12 [Example 20, 5-(2-Hydroxyethoxy)-1,3-dimethyl-3H-pyrazolo[3,4-c]isoquinoline]	–	–	–	–	70	30	0	90	30	0	practically no influence	–	> 600	–	–	–	–	60	10	0
